According to patent US8952024B2, “Herbicidal pyrimidone derivatives” (E I du Pont de Nemours and Company, priority 2009, dated 2015):

What was measured:
Assay type in all cases: in vivo
[1] = system: velvetleaf (Abutilon theophrasti); assay: Test B pre-/postemergence plant response
Excerpt: (§1) Seeds of plant species selected from blackgrass (Alopecurus myosuroides), downy bromegrass (Bromus tectorum), green foxtail (Setaria viridis), Italian ryegrass (Lolium multiflorum), wheat (Triticum aestivum), wild oat (Avena fatua), deadnettle (henbit deadnettle, Lamium amplexicaule), galium (catchweed bedstraw, Galium aparine), bermudagrass (Cynodon dactylon), Surinam grass (Brachiaria decumbens), cocklebur (Xanthium strumarium), corn (Zea mays), large crabgrass (Digitaria sanguinalis), woolly cupgrass (Eriochloa villosa), giant foxtail (Setaria faberii), goosegrass (Eleusine indica), johnsongrass (Sorghum halepense), kochia (Kochia scoparia), lambsquarters (Chenopodium album), morningglory (Ipomoea coccinea), nightshade (eastern black nightshade, Solanum ptycanthum), yellow nutsedge (Cyperus esculentus), pigweed (Amaranthus retroflexus), ragweed (common ragweed, Ambrosia elatior), Russian thistle (Salsola kali), soybean (Glycine max), sunflower (common oilseed sunflower, Helianthus annuus) and velvetleaf (Abutilon theophrasti) were planted into a blend of loam soil and sand and treated preemergence with test compounds formulated in a non-phytotoxic solvent mixture which included a surfactant.
(§2) At the same time, plants selected from these crop and weed species and also winter barley (Hordeum vulgare), canarygrass (Phalaris minor), chickweed (Stellaria media) and windgrass (Apera spica-venti) were planted in pots containing Redi-Earth® planting medium (Scotts Company, 14111 Scottslawn Road, Marysville, Ohio 43041) comprising spaghnum peat moss, vermiculite, wetting agent and starter nutrients and treated with postemergence applications of some of the test chemicals formulated in the same manner. Plants ranged in height from 2 to 18 cm (1- to 4-leaf stage) for postemergence treatments.
(§3) Treated plants and controls were maintained in a greenhouse for 13 to 15 days, after which time all treated plants were visually evaluated and compared to controls. Plant response ratings, summarized in Table B, are based on a scale of 0 to 100 where 0 is no effect and 100 is complete control. A dash (-) response means no test result.

[2] = system: soybean (Glycine max); assay: Test B pre-/postemergence plant response
Excerpt: as §1, §2, §3

[3] = system: corn (Zea mays); assay: Test B pre-/postemergence plant response
Excerpt: as §1, §2, §3

[4] = system: bermudagrass (Cynodon dactylon); assay: Test B pre-/postemergence plant response
Excerpt: as §1, §2, §3

[5] = system: woolly cupgrass (Eriochloa villosa); assay: Test B pre-/postemergence plant response
Excerpt: as §1, §2, §3

[6] = system: ragweed (common ragweed, Ambrosia elatior); assay: Test B pre-/postemergence plant response
Excerpt: as §1, §2, §3

[7] = system: lambsquarters (Chenopodium album); assay: Test B pre-/postemergence plant response
Excerpt: as §1, §2, §3

[8] = system: yellow nutsedge (Cyperus esculentus); assay: Test B pre-/postemergence plant response
Excerpt: as §1, §2, §3

[9] = system: johnsongrass (Sorghum halepense); assay: Test B pre-/postemergence plant response
Excerpt: as §1, §2, §3

[10] = system: blackgrass (Alopecurus myosuroides); assay: Test B pre-/postemergence plant response
Excerpt: as §1, §2, §3

[11] = system: Surinam grass (Brachiaria decumbens); assay: Test B pre-/postemergence plant response
Excerpt: as §1, §2, §3

[12] = system: large crabgrass (Digitaria sanguinalis); assay: Test B pre-/postemergence plant response
Excerpt: as §1, §2, §3

[13] = system: wild oat (Avena fatua); assay: Test B pre-/postemergence plant response
Excerpt: as §1, §2, §3

[14] = system: Italian ryegrass (Lolium multiflorum); assay: Test B pre-/postemergence plant response
Excerpt: as §1, §2, §3

[15] = system: windgrass (Apera spica-venti); assay: Test B postemergence plant response; details: Postemergence
Summary of the method: (§4)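 Visual ratings from 0 (no effect) to 100 (complete control), made against controls 13–15 days after treatment, kept in a greenhouse. Compounds were applied postemergence to potted plants at the 1- to 4-leaf stage (2–18 cm).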

[16] = system: canarygrass (Phalaris minor); assay: Test B postemergence plant response; details: Postemergence
Summary of the method: as §4

[17] = system: chickweed (Stellaria media); assay: Test B postemergence plant response; details: Postemergence
Summary of the method: as §4

[18] = system: winter barley (Hordeum vulgare); assay: Test B postemergence plant response; details: Postemergence
Summary of the method: as §4

[19] = 250 g ai/ha, Preemergence, 0 to 100 scale
[20] = Postemergence, 31 g ai/ha, scale 0 to 100 (0 no effect, 100 complete control)
[21] = Postemergence, 62 g ai/ha, scale 0 (no effect) to 100 (complete control), 13 to 15 days
[22] = Postemergence, 125 g ai/ha, visual rating after 13 to 15 days, scale 0 (no effect) to 100 (complete control)
[23] = Postemergence, 250 g ai/ha, scale 0 to 100
[24] = Preemergence, 31 g ai/ha, scale 0 to 100 (0 no effect, 100 complete control)
[25] = Preemergence, 62 g ai/ha, scale 0 to 100, 0 no effect, 100 complete control
[26] = Preemergence, 125 g ai/ha, 0 to 100 scale
[27] = 31 g ai/ha, scale 0 to 100 (0 no effect, 100 complete control)
[28] = 62 g ai/ha, scale 0 (no effect) to 100 (complete control), 13 to 15 days
[29] = 125 g ai/ha, visual rating after 13 to 15 days, scale 0 (no effect) to 100 (complete control)

## 5-[(1-ethyl-5-hydroxy-1H-pyrazol-4-yl)carbonyl]-2-phenyl-3-(phenylmethyl)-4(3H)-pyrimidinone [Compound 20]
[1]; [19]
  Plant response rating, Velvetleaf: 100
[1]; [20]
  Plant response rating, Velvetleaf: 95
[1]; [21]
  Plant response rating, Velvetleaf: 100
[1]; [22]
  Plant response rating, Velvetleaf: 100
[1]; [23]
  Velvetleaf plant response rating: 100
[1]; [24]
  Plant response rating, Velvetleaf: 50
[1]; [25]
  Plant response rating, Velvetleaf: 90
[1]; [26]
  Velvetleaf plant response rating: 90
[2]; [19]
  Plant response rating, Soybean: 50
[2]; [20]
  Plant response rating, Soybean: 65
[2]; [21]
  Plant response rating, Soybean: 70
[2]; [22]
  Plant response rating, Soybean: 80
[2]; [23]
  Soybean plant response rating: 90
[2]; [24]
  Plant response rating, Soybean: 0
[2]; [25]
  Plant response rating, Soybean: 30
[2]; [26]
  Soybean plant response rating: 35
[3]; [19]
  Plant response rating, Corn: 5
[3]; [20]
  Plant response rating, Corn: 0
[3]; [21]
  Plant response rating, Corn: 0
[3]; [22]
  Plant response rating, Corn: 10
[3]; [23]
  Corn plant response rating: 15
[3]; [24]
  Plant response rating, Corn: 0
[3]; [25]
  Plant response rating, Corn: 0
[3]; [26]
  Corn plant response rating: 0
[4]; [19]
  Plant response rating, Bermudagrass: 90
[4]; [20]
  Plant response rating, Bermudagrass: 15
[4]; [21]
  Plant response rating, Bermudagrass: 25
[4]; Postemergence, 125 g ai/ha, scale 0 to 100 (0 no effect, 100 complete control), 13 to 15 days
  Plant response rating, Bermudagrass: 70
[4]; [23]
  Bermudagrass plant response rating: 80
[4]; [24]
  Plant response rating, Bermudagrass: 10
[4]; [25]
  Plant response rating, Bermudagrass: 70
[4]; [26]
  Bermudagrass plant response rating: 80
[5]; [19]
  Plant response rating, Cupgrass, Woolly: 10
[5]; [20]
  Plant response rating, Cupgrass, Woolly: 0
[5]; [21]
  Plant response rating, Cupgrass, Woolly: 15
[5]; [22]
  Plant response rating, Cupgrass, Woolly: 20
[5]; [23]
  Cupgrass, Woolly plant response rating: 55
[5]; [24]
  Plant response rating, Cupgrass, Woolly: 0
[5]; [25]
  Plant response rating, Cupgrass, Woolly: 0
[5]; [26]
  Cupgrass, Woolly plant response rating: 0
[6]; [19]
  Plant response rating, Ragweed: 90
[6]; [20]
  Plant response rating, Ragweed: 80
[6]; [21]
  Plant response rating, Ragweed: 85
[6]; [22]
  Plant response rating, Ragweed: 98
[6]; [23]
  Ragweed plant response rating: 100
[6]; [24]
  Plant response rating, Ragweed: 65
[6]; [25]
  Plant response rating, Ragweed: 65
[6]; [26]
  Ragweed plant response rating: 90
[7]; [19]
  Plant response rating, Lambsquarters: 100
[7]; [20]
  Plant response rating, Lambsquarters: 85
[7]; [21]
  Plant response rating, Lambsquarters: 95
[7]; [22]
  Plant response rating, Lambsquarters: 98
[7]; [23]
  Lambsquarters plant response rating: 100
[7]; [24]
  Plant response rating, Lambsquarters: 100
[7]; [26]
  Lambsquarters plant response rating: 100
[8]; [19]
  Plant response rating, Nutsedge, Yellow: 50
[8]; [20]
  Plant response rating, Nutsedge, Yellow: 15
[8]; [21]
  Plant response rating, Nutsedge, Yellow: 45
[8]; [22]
  Plant response rating, Nutsedge, Yellow: 65
[8]; [23]
  Nutsedge, Yellow plant response rating: 80
[8]; [24]
  Plant response rating, Nutsedge, Yellow: 5
[8]; [25]
  Plant response rating, Nutsedge, Yellow: 10
[8]; [26]
  Nutsedge, Yellow plant response rating: 40
[9]; [19]
  Plant response rating, Johnsongrass: 10
[9]; [20]
  Plant response rating, Johnsongrass: 0
[9]; [21]
  Plant response rating, Johnsongrass: 0
[9]; [23]
  Johnsongrass plant response rating: 15
[9]; [24]
  Plant response rating, Johnsongrass: 0
[9]; [25]
  Plant response rating, Johnsongrass: 0
[9]; [26]
  Johnsongrass plant response rating: 0
[10]; [19]
  Plant response rating, Blackgrass: 0
[10]; [20]
  Plant response rating, Blackgrass: 0
[10]; [21]
  Plant response rating, Blackgrass: 0
[10]; [22]
  Plant response rating, Blackgrass: 0
[10]; [23]
  Blackgrass plant response rating: 5
[10]; [24]
  Plant response rating, Blackgrass: 0
[10]; [25]
  Plant response rating, Blackgrass: 0
[10]; [26]
  Blackgrass plant response rating: 0
[11]; [19]
  Plant response rating, Surinam Grass: 5
[11]; [20]
  Plant response rating, Surinam Grass: 15
[11]; [21]
  Plant response rating, Surinam Grass: 25
[11]; [22]
  Plant response rating, Surinam Grass: 40
[11]; [23]
  Surinam Grass plant response rating: 65
[11]; [24]
  Plant response rating, Surinam Grass: 0
[11]; [25]
  Plant response rating, Surinam Grass: 0
[11]; [26]
  Surinam Grass plant response rating: 0
[12]; [19]
  Plant response rating, Crabgrass, Large: 100
[12]; [20]
  Plant response rating, Crabgrass, Large: 60
[12]; [21]
  Plant response rating, Crabgrass, Large: 70
[12]; [22]
  Plant response rating, Crabgrass, Large: 80
[12]; [23]
  Crabgrass, Large plant response rating: 90
[12]; [24]
  Plant response rating, Crabgrass, Large: 0
[12]; [25]
  Plant response rating, Crabgrass, Large: 70
[12]; [26]
  Crabgrass, Large plant response rating: 85
[13]; [19]
  Plant response rating, Oat, Wild: 0
[13]; [20]
  Plant response rating, Oat, Wild: 0
[13]; [21]
  Plant response rating, Oat, Wild: 0
[13]; [22]
  Plant response rating, Oat, Wild: 5
[13]; [23]
  Oat, Wild plant response rating: 50
[13]; [24]
  Plant response rating, Oat, Wild: 0
[13]; [25]
  Plant response rating, Oat, Wild: 0
[13]; [26]
  Oat, Wild plant response rating: 0
[14]; [19]
  Plant response rating, Ryegrass, Italian: 0
[14]; [20]
  Plant response rating, Ryegrass, Italian: 0
[14]; [21]
  Plant response rating, Ryegrass, Italian: 0
[14]; [22]
  Plant response rating, Ryegrass, Italian: 5
[14]; [23]
  Ryegrass, Italian plant response rating: 5
[14]; [24]
  Plant response rating, Ryegrass, Italian: 0
[14]; [25]
  Plant response rating, Ryegrass, Italian: 0
[14]; [26]
  Ryegrass, Italian plant response rating: 0
[15]; [27]
  Plant response rating, Windgrass: 0
[15]; [28]
  Plant response rating, Windgrass: 0
[15]; [29]
  Plant response rating, Windgrass: 0
[15]; 250 g ai/ha, scale 0 to 100
  Windgrass plant response rating: 5
[16]; [27]
  Plant response rating, Canarygrass: 0
[16]; [28]
  Plant response rating, Canarygrass: 0
[16]; [29]
  Plant response rating, Canarygrass: 0
[16]; 250 g ai/ha, scale 0 to 100
  Canarygrass plant response rating: 5
[17]; [27]
  Plant response rating, Chickweed: 90
[17]; [28]
  Plant response rating, Chickweed: 98
[17]; [29]
  Plant response rating, Chickweed: 98
[17]; 250 g ai/ha, scale 0 to 100
  Chickweed plant response rating: 100
[18]; [27]
  Plant response rating, Barley: 0
[18]; [28]
  Plant response rating, Barley: 0
[18]; 125 g ai/ha, scale 0 to 100 (0 no effect, 100 complete control), 13 to 15 days
  Plant response rating, Barley: 0
[18]; 250 g ai/ha, scale 0 to 100
  Barley plant response rating: 0
